Drawing on ChEMBL document CHEMBL4813939, “Diterpenoids and Diacetylenes from the Roots of Aralia cordata with Inhibitory Effects on Nitric Oxide Production” (J Nat Prod, 2021), this text covers IC50 and Activity for 22 molecules.

For data set [1], the system named is RAW264.7. Briefly: Anti-inflammatory activity in mouse RAW264.7 cells assessed as inhibition of LPS-induced NO production preincubated for 1 hr followed by LPS stimulation and measured after 24 hrs by Griess reagent based assay. It counts as functional, cell-based.
Data set [2] relates to RAW264.7. Briefly: Cytotoxicity against mouse RAW264.7 cells assessed as reduction in cell viability by MTT assay. The format is cell-based. A general note: Formazan colour is commonly taken as a measure of viable cells.

One may read the IC50 as the concentration that inhibits the measured activity by half.

For `C[C@@]12CCC[C@@](C)(C(=O)O)[C@H]1CCC1=C[C@@](C)([C@H]3CO3)CC[C@H]12`, the IC50 with RAW264.7 [1] was found to be 69.4 µM. Moreover, the Activity result in the data set with RAW264.7 [2] is “Non-Toxic”.
The corresponding values for `C[C@@]12CCC[C@@](C)(C(=O)O)[C@H]1CC[C@]13C=C(C(=O)O)[C@H](CC[C@H]12)C3` are 51.1 µM and “Non-Toxic”.
For `C=C[C@@]1(C)CCC2=C(C1=O)[C@H](O)C[C@@H]1[C@](C)(C(=O)O)CCC[C@@]21C`, the IC50 with RAW264.7 [1] worked out at 21.7 µM. The Activity result in the data set on RAW264.7 [2] was “Non-Toxic”.
Regarding `C=C[C@@]1(C)CCC2=C(CC[C@@H]3[C@](C)(C(=O)O)CCC[C@@]23C)C1=O`, the IC50 with RAW264.7 [1] turned out to be 11.5 µM. For the same molecule, the Activity entry in the data set on RAW264.7 [2] is on record as “Non-Toxic”.
As to `N=C(N)NN` [PIMAGEDINE], the IC50 in the data set with RAW264.7 [1] is 18.7 µM.
In the case of `C=C[C@@]1(C)CC=C2[C@@H](CC[C@@H]3[C@](C)(C(=O)O)CCC[C@@]23C)C1=O`, in the data set with RAW264.7 [1], the IC50 is 10 µM. Further, the Activity entry with RAW264.7 [2] is on record as “Non-Toxic”.
As to `C=C/C(C)=C\C[C@@H]1C(=C)CC[C@@H]2[C@](C)(CO)CCC[C@@]12C`, the IC50 in the data set on RAW264.7 [1] was determined as 44 µM. The Activity result in the data set on RAW264.7 [2] is “Non-Toxic”.
Taken in the same sequence, the figures for `C=C[C@]1(C)C=C2C(=O)C[C@H]3[C@@](C)(CCC[C@@]3(C)C(=O)O)[C@@H]2CC1` were 66.8 µM and “Non-Toxic”.
On to `CC(C)CC(=O)OC[C@@]1(O)C[C@@]23CC[C@H]4[C@@](C)(CCC[C@@]4(C)C(=O)O)[C@@H]2CC[C@@H]1C3`, for which the IC50 in the data set with RAW264.7 [1] amounted to 28.2 µM. In addition, the Activity result with RAW264.7 [2] is given as “Non-Toxic”.
Turning to `C[C@@]12CCC[C@@](C)(C(=O)O)[C@H]1CC[C@]13C=C(C=O)[C@H](CC[C@H]12)C3`, the IC50 in the data set with RAW264.7 [1] is 14.2 µM. Moreover, the Activity result with RAW264.7 [2] was “Non-Toxic”.
Regarding `C=C[C@H](O)C#CC#C[C@@H](O)/C=C\CCCCCCC`, the IC50 in the data set with RAW264.7 [1] came out at 5.4 µM. The Activity result in the data set on RAW264.7 [2] is listed as “Non-Toxic”.
For the molecule `C=C[C@]1(C)C=C2CC[C@@H]3[C@](C)(CO)CCC[C@@]3(C)[C@@H]2CC1`, the IC50 in the data set on RAW264.7 [1] came to 10.2 µM. Moreover, the Activity result with RAW264.7 [2] is given as “Non-Toxic”.
The corresponding values for `C=C[C@@]1(C)CCC2=C(C1)C(=O)C[C@@H]1[C@](C)(C(=O)O)CCC[C@@]21C` are 14.9 µM and “Non-Toxic”.
For the molecule `C=C1C[C@@]23CC[C@@H]4[C@](C)(CO)CCC[C@@]4(C)[C@@H]2CC[C@@H]1C3`, the IC50 with RAW264.7 [1] stood at 5.4 µM. Moreover, the Activity result with RAW264.7 [2] is on record as “Non-Toxic”.
Take `C=C[C@]1(COC(=O)CC(C)C)C=C2CC[C@H]3[C@@](C)(CCC[C@@]3(C)C(=O)O)[C@@H]2CC1`: the IC50 with RAW264.7 [1] is 10.6 µM. For the same molecule, the Activity result with RAW264.7 [2] is “Non-Toxic”.
The corresponding values for `C[C@@]12CCC[C@@](C)(C(=O)O)[C@H]1CC[C@]13C=C(CO)[C@H](CC[C@H]12)C3` are 47.8 µM and “Non-Toxic”.
Regarding `C=CCCCCC/C=C\[C@@H](C#CC#C[C@@H](O)CC)OC(C)=O`, the concentration for half-maximal inhibition (IC50) with RAW264.7 [1] was 2.3 µM. Moreover, the Activity result in the data set on RAW264.7 [2] is reported as “Non-Toxic”.
Turning to `C=CCCCCC/C=C\[C@H](O)C#CC#CC(CC)OC(=O)/C=C/c1ccc(O)cc1` (stereo partly drawn), the half-inhibitory concentration (IC50) in the data set on RAW264.7 [1] was determined as 1.1 µM. Besides, in the data set with RAW264.7 [2], the Activity entry is “Non-Toxic”.
Regarding `C=CCCCCC/C=C\[C@H](O)C#CC#C[C@@H](O)CC` [DENDROARBOREOL A], the IC50 with RAW264.7 [1] came out at 40.5 µM. For the same molecule, the Activity result with RAW264.7 [2] is “Non-Toxic”.
The corresponding values for `C=C1[C@@H]2CC[C@H]3[C@]4(C)CCC[C@@](C)(C(=O)O)[C@H]4CC[C@]3(C2)[C@H]1O` are 25.4 µM and “Non-Toxic”.
Consider `CC(C)CC(=O)OC[C@H](O)[C@]1(C)C=C2CC[C@H]3[C@@](C)(CCC[C@]3(C)C(=O)O)[C@@H]2CC1`, for which the 50% inhibitory concentration (IC50) in the data set on RAW264.7 [1] was found to be 35.1 µM. The Activity result with RAW264.7 [2] was “Non-Toxic”.
Regarding `C=C[C@@]1(C)CC=C2C(CC[C@@H]3[C@](C)(CO)CCC[C@@]23C)C1` (stereo partly drawn), the IC50 in the data set with RAW264.7 [1] stood at 17.6 µM. Further, the Activity result in the data set with RAW264.7 [2] is “Non-Toxic”.
